Test results: patent publication US20260325655A1, “DECREASING THE INTRINSICALLY DISORDERED PROTEIN ALPHA-SYNUCLEIN’S LEVELS BY TARGETING ITS STRUCTURED MRNA WITH A RIBONUCLEASE TARGETING CHIMERA” (University of Florida Research Foundation, Incorporated, priority 2023, published 2026)

Legend:
Type in all cases: cell-based, human
SNCA mRNA [1] = assay: SNCA mRNA cleavage after siRNA knock-down of RNase L in SH-SY5Y cells
Experimental: (§1) RNA extraction and reverse transcription-quantitative polymerase chain reaction (RT-qPCR). Total RNA was extracted from cells using a Quick-RNA MiniPrep Kit (Zymo Research) per the manufacturer's protocol including DNase treatment. For each sample, 200 ng of RNA was reverse transcribed into cDNA by using a qScript cDNA Synthesis Kit (QuantaBio) according to the manufacturer's instructions. To assess the relative mRNA levels, RT-qPCR was performed in triplicate using SYBR Green PCR mater mix (Applied Biosystems) with a Quant Studio 5 Real-Time PCR system. The relative levels of mRNA were calculated by using the ΔΔCt method as previously described.^8
Transfection of siRNAs. The siRNAs were purchased from commercial sources as listed in General information. The α-synuclein siRNA (final concentration of 200 nM) or RNase L siRNA (final concentration of 50 nM) were transfected into SH-SY5Y cells (at ~60% confluency in 12-well plates) by using the Lipofectamine RNAiMax (Life technologies) per manufacturer's protocol.

SNCA mRNA [2] = assay: SNCA mRNA in iPSC-induced dopaminergic neurons
Experimental: as §1
Dopamine neuron induction. For dopamine neuronal induction,^15,16 the dual-SMAD inhibition method^17 was used for floor plate (FP)-based midbrain dopamine (DA) neuron induction with modifications. Prior to differentiation, Matrigel matrix (BD) was thawed at 4° C. overnight or on ice until it is dissolved. Matrigel coated 6-well plates were prepared according to manufacturer's instructions and incubated at 37° C. for at least 1 h before use. iPSCs were dissociated with Accutase (STEMCELL Technologies) and plated (3.5×10^5-4×10^5 cells per cm^2) into a new Matrigel coated plate and grown in mTeSR medium (STEMCELL Technologies) with StemBeads FGF2 (StemCultures) and ROCK inhibitor Y27632 (5 μM, Tocris). […]

SNCA mRNA [3] = assay: competition of Synucleozid-2.0 with Syn-RiboTAC in SH-SY5Y cells; conditions: Synucleozid-2.0 0.1-10 μM; Syn-RiboTAC constant 2 μM
Experimental: Syn-RiboTAC's activity is RNase L-dependent. To validate mode of action, RNase L was knocked down in SH-SY5Y cells with a pool of siRNAs (FIG. 5C), followed by treatment with Syn-RiboTAC. […] Syn-RiboTAC and Synucleozid-2.0 were validated to engage the same binding site in cells by a competition experiment using a constant concentration of Syn-RiboTAC(2 μM) and varying concentrations of Synucleozid-2.0 (0.1-10 μM).
as §1

Q: With `CCOC(=O)C1=C(Nc2ccccc2)S/C(=C\c2ccc(OCCOCCOCCOCCNC(=O)CCCOc3ccc(-n4c(SCC(=O)Nc5ccc6cn[nH]c6c5)nnc4-c4ccncc4)cc3)c(O)c2)C1=O` [Syn-RiboTAC] as the compound, how does the “effect of scrambled control siRNA on Syn-RiboTAC activity” value (SNCA mRNA [1]; scrambled control siRNA) read?
A: No significant effect on activity

Q: And the “effect on SNCA mRNA after RNase L knock-down” value (SNCA mRNA [1]; siRNA pool against RNase L)?
A: ablated the effect of Syn-RiboTAC on SNCA mRNA

Q: What about the “decrease of SNCA transcript levels in dopaminergic neurons” value (SNCA mRNA [2]) of the same compound?
A: ~ 50%

Q: For `O=C(CSc1nnc(-c2ccncc2)n1-c1ccc(Br)cc1)Nc1ccc2cn[nH]c2c1` [Synucleozid-2.0], which “SNCA mRNA levels in competition experiment” value (SNCA mRNA [3]) is on record?
A: dose-dependent restoration of SNCA mRNA levels

Q: And the “effect on SNCA mRNA levels in dopaminergic neurons (in words)” value (SNCA mRNA [2])?
A: no effect
